Measurements as given in the supplement of paper PMC11451515.

System: NOMO1
Experiment: cell viability relative to DMSO control; higher = less cytotoxic
Settings: 48 h
Method in brief: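 NOMO1 or SEM (500 cells/well) or P12-Ichikawa (1000 cells/well) leukemia cells were adapted for at least four passages in each medium. They were seeded in 1536-well plates (5 μl) and pin-dosed with library compounds in DMSO over an 11-point threefold series, 47 μM to 0.79 nM. CellTiter-Glo One luminescence was read after 48 h at 37°C. Viability is the per-plate percentage relative to DMSO wells, with cell-free wells as background.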

[1] = HPLM + 10% dialyzed FBS, 0.000781 µM
[2] = HPLM + 10% dialyzed FBS, 0.00234 µM
[3] = HPLM + 10% dialyzed FBS, 0.00702 µM
[4] = HPLM + 10% dialyzed FBS, 0.0211 µM
[5] = HPLM + 10% dialyzed FBS, 0.0632 µM
[6] = HPLM + 10% dialyzed FBS, 0.19 µM
[7] = HPLM + 10% dialyzed FBS, 0.569 µM
[8] = HPLM + 10% dialyzed FBS, 1.71 µM
[9] = HPLM + 10% dialyzed FBS, 5.12 µM
[10] = HPLM + 10% dialyzed FBS, 15.4 µM
[11] = HPLM + 10% dialyzed FBS, 46.1 µM
[12] = RPMI 5 mM glucose + 10% FBS, 0.000781 µM
[13] = RPMI 5 mM glucose + 10% FBS, 0.00234 µM
[14] = RPMI 5 mM glucose + 10% FBS, 0.00702 µM
[15] = RPMI 5 mM glucose + 10% FBS, 0.0211 µM
[16] = RPMI 5 mM glucose + 10% FBS, 0.0632 µM
[17] = RPMI 5 mM glucose + 10% FBS, 0.19 µM
[18] = RPMI 5 mM glucose + 10% FBS, 0.569 µM
[19] = RPMI 5 mM glucose + 10% FBS, 1.71 µM
[20] = RPMI 5 mM glucose + 10% FBS, 5.12 µM
[21] = RPMI 5 mM glucose + 10% FBS, 15.4 µM
[22] = RPMI 5 mM glucose + 10% FBS, 46.1 µM
[23] = RPMI 5 mM glucose + 10% dialyzed FBS, 0.000781 µM
[24] = RPMI 5 mM glucose + 10% dialyzed FBS, 0.00234 µM
[25] = RPMI 5 mM glucose + 10% dialyzed FBS, 0.00702 µM
[26] = RPMI 5 mM glucose + 10% dialyzed FBS, 0.0211 µM
[27] = RPMI 5 mM glucose + 10% dialyzed FBS, 0.0632 µM
[28] = RPMI 5 mM glucose + 10% dialyzed FBS, 0.19 µM
[29] = RPMI 5 mM glucose + 10% dialyzed FBS, 0.569 µM
[30] = RPMI 5 mM glucose + 10% dialyzed FBS, 1.71 µM
[31] = RPMI 5 mM glucose + 10% dialyzed FBS, 5.12 µM
[32] = RPMI 5 mM glucose + 10% dialyzed FBS, 15.4 µM
[33] = RPMI 5 mM glucose + 10% dialyzed FBS, 46.1 µM

Row | Compound | cell viability [1] [%] | cell viability [2] [%] | cell viability [3] [%] | cell viability [4] [%] | cell viability [5] [%] | cell viability [6] [%] | cell viability [7] [%] | cell viability [8] [%] | cell viability [9] [%] | cell viability [10] [%] | cell viability [11] [%] | cell viability [12] [%] | cell viability [13] [%] | cell viability [14] [%] | cell viability [15] [%] | cell viability [16] [%] | cell viability [17] [%] | cell viability [18] [%] | cell viability [19] [%] | cell viability [20] [%] | cell viability [21] [%] | cell viability [22] [%] | cell viability [23] [%] | cell viability [24] [%] | cell viability [25] [%] | cell viability [26] [%] | cell viability [27] [%] | cell viability [28] [%] | cell viability [29] [%] | cell viability [30] [%] | cell viability [31] [%] | cell viability [32] [%] | cell viability [33] [%]
1 | Nc1nc(N)c2nc(-c3cccc(O)c3)c(-c3cccc(O)c3)nc2n1 | 124 | 135 | 110 | 128 | 116 | 126 | 123 | 108 | 79.6 | 47.8 | 17 | 106 | 115 | 102 | 116 | 112 | 117 | 105 | 111 | 91.6 | 90.6 | 4.68 | 119 | 106 | 107 | 112 | 114 | 110 | 105 | 108 | 96.7 | 78.5 | 42.2
2 | COC1=CC=CC(=C1N)\C2=C\C(=O)C3=C(O2)C=CC=C3 | – | – | – | – | – | – | – | – | – | – | – | 120 | 121 | 119 | 117 | 143 | 125 | 143 | 124 | 126 | 121 | 116 | – | – | – | – | – | – | – | – | – | – | –
3 | CC(C)C[C@H](NC(=O)CNC(=O)c1cc(Cl)ccc1Cl)B(O)O | 88.3 | 104 | 106 | 33.1 | 125 | 92 | 20.4 | 9.39 | 4.5 | 4.57 | 4.02 | 81.1 | 88.8 | 100 | 16.8 | 104 | 86.2 | 19.7 | 7.24 | 5.18 | 4.14 | 2.67 | 98.5 | 94.2 | 108 | 33.5 | 96.9 | 107 | 28.3 | 8.85 | 5.16 | 4.61 | 2.91
4 | Cc1csc(NC(=O)c2sc3nc4c(c(C(F)(F)F)c3c2N)CCC4)n1 | 91.6 | 102 | 97.9 | 101 | 96.7 | 96.4 | 99.4 | 91.4 | 94 | 79.6 | 77.6 | 81.7 | 94.4 | 92.3 | 87.4 | 90.6 | 86 | 91.7 | 88.1 | 87.2 | 78.3 | 85.5 | 83.5 | 91.2 | 93 | 93.1 | 91.3 | 89.4 | 91 | 97.9 | 96.3 | 95.3 | 89.7
5 | C[C@]12CC[C@H]3[C@@H](C\C=C/4C[C@@H](O)CC[C@]34C)[C@@H]1CCC2=O | 115 | 134 | 117 | 121 | 147 | 117 | 111 | 110 | 103 | 110 | 84.7 | 116 | 126 | 116 | 104 | 116 | 105 | 121 | 112 | 117 | 103 | 98 | 120 | 108 | 115 | 119 | 118 | 106 | 114 | 108 | 103 | 109 | 106
6 | CN1CCCC(CC1)N2\N=C(CC3=CC=C(Cl)C=C3)/C4=C(C=CC=C4)C2=O (centres undefined) | 101 | 108 | 109 | 122 | 127 | 125 | 112 | 120 | 109 | 65.7 | 48.1 | 102 | 107 | 120 | 109 | 109 | 112 | 108 | 114 | 107 | 94.2 | 55.5 | 117 | 118 | 107 | 110 | 125 | 128 | 121 | 109 | 112 | 106 | 57.1
7 | CN(C)CCOc1ccc(-c2nc(-c3ccncc3)c(-c3ccc4c(c3)CC/C4=N\O)[nH]2)cc1 | 98.1 | 113 | 102 | 110 | 127 | 129 | 129 | 107 | 95.3 | 95.2 | 62.9 | 97 | 101 | 95 | 104 | 118 | 112 | 97.2 | 95.5 | 104 | 86.9 | 81.4 | 108 | 105 | 121 | 106 | 119 | 121 | 115 | 106 | 85.5 | 85.4 | 53.8
